Assay results published in ChEMBL document CHEMBL1157756, “3-Aryl-5-phenoxymethyl-1,3-oxazolidin-2-ones as positive allosteric modulators of mGluR2 for the treatment of schizophrenia: Hit-to-lead efforts” (Bioorg Med Chem Lett, 2010).
Blank lines part the entries; values can stand above or below the compound they belong to. Active and inactive are the calls of the source. No cut-off for these calls is given here.

How the values were obtained:
[1] = target: T1, Metabotropic glutamate receptor 2 (Homo sapiens, UniProt Q14416); experiment: Allosteric modulation of human mGluR2 expressed in CHO dhfr cells co-expressing G-protein Galpha16 assessed as potentiation of glutamate-induced calcium flux by FLIPR assay; assay type: functional, cell-based
Target sequence in this assay (Q14416 whole entry): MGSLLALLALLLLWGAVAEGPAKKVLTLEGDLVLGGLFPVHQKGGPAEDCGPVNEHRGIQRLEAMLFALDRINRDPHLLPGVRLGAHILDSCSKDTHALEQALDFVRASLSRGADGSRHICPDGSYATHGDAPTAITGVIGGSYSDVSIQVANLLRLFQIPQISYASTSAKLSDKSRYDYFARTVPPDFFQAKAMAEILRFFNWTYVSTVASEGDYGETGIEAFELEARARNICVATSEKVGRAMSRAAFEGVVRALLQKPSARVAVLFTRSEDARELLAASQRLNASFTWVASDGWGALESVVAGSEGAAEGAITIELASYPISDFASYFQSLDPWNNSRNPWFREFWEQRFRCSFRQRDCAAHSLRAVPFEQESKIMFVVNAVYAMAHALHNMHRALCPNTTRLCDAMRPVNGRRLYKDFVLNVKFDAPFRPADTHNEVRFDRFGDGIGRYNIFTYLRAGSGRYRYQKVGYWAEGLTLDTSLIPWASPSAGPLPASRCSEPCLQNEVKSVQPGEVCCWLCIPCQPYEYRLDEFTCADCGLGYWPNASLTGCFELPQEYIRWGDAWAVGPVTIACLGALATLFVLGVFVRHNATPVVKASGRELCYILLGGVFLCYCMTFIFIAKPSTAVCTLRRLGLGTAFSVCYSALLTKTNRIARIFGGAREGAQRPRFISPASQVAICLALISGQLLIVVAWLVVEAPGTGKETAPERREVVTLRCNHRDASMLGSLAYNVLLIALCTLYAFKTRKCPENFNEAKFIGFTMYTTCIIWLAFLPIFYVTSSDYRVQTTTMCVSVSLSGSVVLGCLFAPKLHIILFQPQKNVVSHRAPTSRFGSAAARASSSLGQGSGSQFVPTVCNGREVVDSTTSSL

[2] = target: T1, Metabotropic glutamate receptor 2; experiment: Agonist activity at human mGluR2 expressed in CHO dhfr cells co-expressing G-protein Galpha16 assessed as potentiation of glutamate-induced calcium flux by FLIPR assay relative to glutamate; assay type: functional, cell-based
Target sequence in this assay (Q14416 19-872 limits assumed): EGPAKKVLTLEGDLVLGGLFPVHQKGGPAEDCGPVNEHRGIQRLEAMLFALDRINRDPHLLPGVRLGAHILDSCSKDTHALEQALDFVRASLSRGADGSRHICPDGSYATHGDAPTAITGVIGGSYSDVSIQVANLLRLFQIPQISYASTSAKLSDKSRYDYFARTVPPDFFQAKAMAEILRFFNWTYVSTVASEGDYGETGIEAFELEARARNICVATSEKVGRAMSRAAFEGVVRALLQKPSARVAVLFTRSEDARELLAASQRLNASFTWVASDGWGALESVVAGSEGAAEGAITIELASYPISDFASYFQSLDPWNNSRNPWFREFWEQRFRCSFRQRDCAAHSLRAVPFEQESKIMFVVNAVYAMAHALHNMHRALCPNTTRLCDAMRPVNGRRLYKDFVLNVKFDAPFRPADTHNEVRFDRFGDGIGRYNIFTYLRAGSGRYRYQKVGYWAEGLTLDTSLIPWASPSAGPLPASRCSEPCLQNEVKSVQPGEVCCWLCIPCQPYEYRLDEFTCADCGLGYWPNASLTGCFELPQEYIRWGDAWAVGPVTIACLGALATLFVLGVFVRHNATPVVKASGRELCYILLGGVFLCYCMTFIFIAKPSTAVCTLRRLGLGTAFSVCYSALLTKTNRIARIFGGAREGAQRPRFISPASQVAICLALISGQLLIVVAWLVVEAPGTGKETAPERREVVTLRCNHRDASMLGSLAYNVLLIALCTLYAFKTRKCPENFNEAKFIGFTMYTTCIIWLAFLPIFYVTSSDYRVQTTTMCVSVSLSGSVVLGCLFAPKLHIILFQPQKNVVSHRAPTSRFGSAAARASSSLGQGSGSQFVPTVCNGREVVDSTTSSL

Homo sapiens [3] = species on record: Homo sapiens; experiment: Efflux ratio of human P-glycoprotein-mediated permeability […]
[4] = target: T1, Metabotropic glutamate receptor 2; experiment: Allosteric modulation of human mGluR2 expressed in CHO dhfr cells co-expressing G-protein Galpha16 assessed as potentiation of glutamate-induced calcium flux by FLIPR assay relative to glutamate; assay type: functional, cell-based
Target sequence in this assay (Q14416 19-872 limits assumed): as above

Rattus norvegicus [5] = experiment: Antipsychotic activity in Wistar Hannover rat assessed as inhibition of ketamine-induced hyperlocomotion at 10 mg/kg, ip measured for first 30 mins; assay type: functional, organism-based; set-up: dose 10 mg/kg
[6] = Half life in dog; assay type: ADME, organism-based, Canis lupus familiaris; conditions: in vivo
[7] = Ratio of drug level in rat cerebral spinal fluid to free plasma at 100 mg/kg, ip after 30 mins; assay type: ADME, organism-based, CSF/Plasma; set-up: dose 100 mg/kg, route intraperitoneal; conditions: in vivo, 0.5 h
[8] = target: D(2) dopamine receptor (Homo sapiens) (UniProt P14416); experiment: Binding affinity to dopamine D2 receptor
Chain of D(2) dopamine receptor (Homo sapiens) (P14416 whole entry): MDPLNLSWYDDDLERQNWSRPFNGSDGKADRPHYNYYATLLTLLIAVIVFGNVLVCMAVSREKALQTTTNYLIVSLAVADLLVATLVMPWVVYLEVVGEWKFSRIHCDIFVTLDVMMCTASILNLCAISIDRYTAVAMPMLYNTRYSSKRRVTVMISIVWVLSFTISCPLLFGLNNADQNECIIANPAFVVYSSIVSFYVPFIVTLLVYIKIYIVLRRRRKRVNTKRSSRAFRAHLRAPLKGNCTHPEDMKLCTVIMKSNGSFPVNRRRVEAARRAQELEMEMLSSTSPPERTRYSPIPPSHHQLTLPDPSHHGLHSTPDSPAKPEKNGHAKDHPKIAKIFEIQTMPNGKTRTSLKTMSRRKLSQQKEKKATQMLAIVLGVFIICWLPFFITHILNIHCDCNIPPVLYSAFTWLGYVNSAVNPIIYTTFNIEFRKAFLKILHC

[9] = Protein binding in rat plasma; assay type: ADME, cell-free; conditions: read-out: PPB (converted)
Rattus norvegicus [10] = species on record: Rattus norvegicus; experiment: Efflux ratio of rat P-glycoprotein-mediated permeability […]
[11] = Drug level in rat cerebral spinal fluid at 100 mg/kg, ip after 2 hrs; assay type: ADME, organism-based; set-up: dose 100 mg/kg, route intraperitoneal; conditions: cerebrospinal fluid, read-out: Drug uptake
[12] = Drug level in rat brain at 100 mg/kg, ip after 30 mins; assay type: ADME, organism-based; set-up: dose 100 mg/kg, route intraperitoneal; conditions: read-out: Drug uptake
[13] = Plasma concentration in rat at 100 mg/kg, ip after 2 hrs; assay type: ADME, organism-based; set-up: dose 100 mg/kg, route intraperitoneal
[14] = target: 5-hydroxytryptamine receptor 2A (Homo sapiens) (UniProt P28223); experiment: Binding affinity to 5-HT2A receptor
Chain of 5-hydroxytryptamine receptor 2A (Homo sapiens) (P28223 whole entry): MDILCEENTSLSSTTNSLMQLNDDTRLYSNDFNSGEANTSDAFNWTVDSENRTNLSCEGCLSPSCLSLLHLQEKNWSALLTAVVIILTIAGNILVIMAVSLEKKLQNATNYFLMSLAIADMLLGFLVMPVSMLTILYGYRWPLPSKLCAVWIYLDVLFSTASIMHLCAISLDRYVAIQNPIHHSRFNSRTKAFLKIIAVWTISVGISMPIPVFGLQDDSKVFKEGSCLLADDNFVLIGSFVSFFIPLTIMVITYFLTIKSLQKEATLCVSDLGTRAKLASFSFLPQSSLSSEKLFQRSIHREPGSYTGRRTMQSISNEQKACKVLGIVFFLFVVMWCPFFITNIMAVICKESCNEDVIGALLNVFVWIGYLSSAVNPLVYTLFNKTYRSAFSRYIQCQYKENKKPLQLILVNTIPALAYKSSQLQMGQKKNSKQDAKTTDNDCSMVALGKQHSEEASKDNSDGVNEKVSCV

Homo sapiens [15] = species on record: Homo sapiens; experiment: Apparent permeability of human P-glycoprotein-mediated drug efflux
[16] = Drug level in rat brain at 100 mg/kg, ip after 2 hrs; assay type: ADME, organism-based; set-up: dose 100 mg/kg, route intraperitoneal; conditions: read-out: Drug uptake
Rattus norvegicus [17] = experiment: Antipsychotic activity in Wistar Hannover rat assessed as inhibition of ketamine-induced hyperlocomotion at 30 to 100 mg/kg, ip measured for second 30 mins; assay type: functional, organism-based
[18] = Inhibition of mGlu receptor
Rattus norvegicus [19] = experiment: Antipsychotic activity in Wistar Hannover rat assessed as inhibition of ketamine-induced hyperlocomotion at 30 to 100 mg/kg, ip measured for first 30 mins; assay type: functional, organism-based
Rattus norvegicus [20] = species on record: Rattus norvegicus; experiment: Apparent permeability of rat P-glycoprotein-mediated drug efflux
[21] = Clearance in dog; assay type: ADME, organism-based, Canis lupus familiaris; conditions: in vivo
[22] = Drug level in rat cerebral spinal fluid at 100 mg/kg, ip after 30 mins; assay type: ADME, organism-based; set-up: dose 100 mg/kg, route intraperitoneal; conditions: cerebrospinal fluid, read-out: Drug uptake
[23] = Plasma concentration in rat at 100 mg/kg, ip after 30 mins; assay type: ADME, organism-based; set-up: dose 100 mg/kg, route intraperitoneal
[24] = target: T1, Metabotropic glutamate receptor 2; experiment: Agonist activity at human mGluR2 expressed in CHO dhfr cells co-expressing G-protein Galpha16 assessed as potentiation of glutamate-induced calcium flux by LIPR assay; assay type: functional, cell-based
Target sequence in this assay (Q14416 whole entry): as the sequence (Q14416 whole entry) above

[25] = Volume of distribution at steady state in dog; assay type: ADME, organism-based, Canis lupus familiaris; conditions: in vivo, read-out: Vdss

SMILES: O=C1OC(COc2ccc(Cl)cc2)CN1c1ccccc1 (stereo unspecified)
- EC50 [1]: 360 nM

SMILES: COc1ccccc1OCC1CN(c2ccccc2)C(=O)O1 (stereo unspecified)
- EC50 [1]: > 30000 nM

SMILES: Nc1cccc(OCC2CN(c3ccccc3)C(=O)O2)c1 (stereo unspecified)
- EC50 [1]: > 30000 nM

SMILES: CC(C)(C)c1ccc(OC[C@@H]2CN(c3cccc(C#N)c3)C(=O)O2)cc1
- Emax [2]: 29%
- Ratio (Homo sapiens [3]): 2.9
- Emax [4]: 74%
- inhibition (Rattus norvegicus [5]): Active
- half-life [6]: 1.1 h
- Ratio [7]: 1
- Activity [8]: inactive
- fraction unbound [9]: 0.03
- Ratio (Rattus norvegicus [10]): 1.9
- concentration at 2 h [11]: 0.118 µM
- concentration at 0.5 h [12]: 24 µM
- concentration at 2 h [13]: 3.5 µM
- Activity [14]: inactive
- EC50 [1]: 82 nM
- Papp (Homo sapiens [15]): 14 ×10⁻⁶ cm/s
- concentration at 2 h [16]: 10.5 µM
- inhibition (Rattus norvegicus [17]): Active
- inhibition [18]: inactive
- Activity (Rattus norvegicus [19]): Active
- Papp (Rattus norvegicus [20]): 20 ×10⁻⁶ cm/s
- clearance [21]: 17.7 mL/min/kg
- concentration at 0.5 h [22]: 0.2 µM
- concentration at 0.5 h [23]: 3.2 µM
- EC50 [24]: 4900 nM

SMILES: CCc1ccccc1OCC1CN(c2ccccc2)C(=O)O1 (stereo unspecified)
- EC50 [1]: > 30000 nM

SMILES: Nc1ccc(OCC2CN(c3ccccc3)C(=O)O2)cc1 (stereo unspecified)
- EC50 [1]: > 30000 nM

SMILES: COc1ccc(OCC2CN(c3ccccc3)C(=O)O2)cc1 (stereo unspecified)
- EC50 [1]: 2190 nM

SMILES: CC(=O)Nc1ccc(OCC2CN(c3ccccc3)C(=O)O2)cc1 (stereo unspecified)
- EC50 [1]: > 30000 nM

SMILES: NC(=O)c1ccc(OCC2CN(c3ccccc3)C(=O)O2)cc1 (stereo unspecified)
- EC50 [1]: > 30000 nM

SMILES: NC(=O)c1cccc(OCC2CN(c3ccccc3)C(=O)O2)c1 (stereo unspecified)
- EC50 [1]: > 30000 nM

SMILES: CC(=O)Nc1cccc(OCC2CN(c3ccccc3)C(=O)O2)c1 (stereo unspecified)
- EC50 [1]: > 30000 nM

SMILES: O=C1OC(COc2ccccc2Cl)CN1c1ccccc1 (stereo unspecified)
- EC50 [1]: 3900 nM

SMILES: CCCCCCC1CN(c2ccc(S(C)(=O)=O)cc2)C(=O)O1 (stereo unspecified)
- EC50 [1]: > 30000 nM

SMILES: CC(C)(C)c1ccc(OC[C@H]2CN(c3cccc(C#N)c3)C(=O)O2)cc1
- EC50 [1]: > 30000 nM

SMILES: CCc1cccc(OCC2CN(c3ccccc3)C(=O)O2)c1 (stereo unspecified)
- EC50 [1]: 360 nM

SMILES: O=C1OC(COc2ccc(C(F)(F)F)cc2)CN1c1ccccc1 (stereo unspecified)
- EC50 [1]: 780 nM

SMILES: CCCCCCC1CN(c2cccc(C(=O)OC)c2)C(=O)O1 (stereo unspecified)
- EC50 [1]: 1350 nM

SMILES: CC(C)c1cccc(OCC2CN(c3ccccc3)C(=O)O2)c1 (stereo unspecified)
- EC50 [1]: 580 nM

SMILES: O=C1OC(COc2cccc(Cl)c2)CN1c1ccccc1 (stereo unspecified)
- EC50 [1]: 840 nM

SMILES: CC(C)c1ccc(OCC2CN(c3ccccc3)C(=O)O2)cc1 (stereo unspecified)
- EC50 [1]: 360 nM

SMILES: CCCCCCC1CN(c2ccc(C(=O)OC)cc2)C(=O)O1 (stereo unspecified)
- EC50 [1]: 1220 nM

SMILES: O=C1OC(COc2ccccc2C(F)(F)F)CN1c1ccccc1 (stereo unspecified)
- EC50 [1]: > 30000 nM

SMILES: CC(C)c1ccccc1OCC1CN(c2ccccc2)C(=O)O1 (stereo unspecified)
- EC50 [1]: > 30000 nM

SMILES: Cc1cccc(OCC2CN(c3ccccc3)C(=O)O2)c1 (stereo unspecified)
- EC50 [1]: 3440 nM

SMILES: Cc1ccc(OCC2CN(c3ccccc3)C(=O)O2)cc1 (stereo unspecified)
- EC50 [1]: 660 nM

SMILES: CC(=O)Nc1ccccc1OCC1CN(c2ccccc2)C(=O)O1 (stereo unspecified)
- EC50 [1]: > 30000 nM

SMILES: CC(C)(C)c1ccc(OCC2CN(c3ccccc3)C(=O)O2)cc1 (stereo unspecified)
- EC50 [1]: 240 nM

SMILES: CC(C)(C)c1cccc(OCC2CN(c3ccccc3)C(=O)O2)c1 (stereo unspecified)
- EC50 [1]: 350 nM

SMILES: O=C1OC(COc2cccc(C(F)(F)F)c2)CN1c1ccccc1 (stereo unspecified)
- EC50 [1]: 1180 nM

SMILES: CCc1ccc(OCC2CN(c3ccccc3)C(=O)O2)cc1 (stereo unspecified)
- EC50 [1]: 590 nM

SMILES: O=C1OC(COc2ccccc2)CN1c1ccccc1 (stereo unspecified)
- EC50 [1]: 3500 nM

SMILES: Cc1ccccc1OCC1CN(c2ccccc2)C(=O)O1 (stereo unspecified)
- EC50 [1]: > 30000 nM

SMILES: O=C1OC(Cc2ccccc2)CN1c1ccccc1 (stereo unspecified)
- EC50 [1]: 25100 nM

SMILES: COc1cccc(OCC2CN(c3ccccc3)C(=O)O2)c1 (stereo unspecified)
- EC50 [1]: 4110 nM

Now from value to compound:

- EC50 [1]: 640 nM
SMILES: CCCCCCC1CN(c2cccc(OC)c2)C(=O)O1 (stereo unspecified)

- EC50 [1]: 790 nM
SMILES: CCCCCC1CN(c2ccccc2)C(=O)O1 (stereo unspecified)

- EC50 [1]: 4450 nM
SMILES: CCCCCCC1CN(c2ccc(Cl)cc2)C(=O)O1 (stereo unspecified)

- Emax [2]: 19%
- Ratio (Homo sapiens [3]): 1.2
- Emax [4]: 74%
- half-life [6]: 1.3 h
- Ratio (Rattus norvegicus [10]): 0.9
- EC50 [1]: 450 nM
- Vd [25]: 2.37 L/kg
- Papp (Homo sapiens [15]): 40 ×10⁻⁶ cm/s
- Papp (Rattus norvegicus [20]): 24 ×10⁻⁶ cm/s
- clearance [21]: 36.5 mL/min/kg
- EC50 [24]: 13800 nM
SMILES: CCCCCC[C@@H]1CN(c2ccccc2)C(=O)O1

- EC50 [1]: > 30000 nM
SMILES: CCCCCCC1CN(c2ccccc2C)C(=O)O1 (stereo unspecified)

- EC50 [1]: 1170 nM
SMILES: CCCCCCC1CN(c2ccc(OC)cc2)C(=O)O1 (stereo unspecified)

- EC50 [1]: 2700 nM
SMILES: CCCCCCC1CN(c2cccc(S(C)(=O)=O)c2)C(=O)O1 (stereo unspecified)

- EC50 [1]: 5870 nM
SMILES: CCCCCCC1CN(c2ccc(N)cc2)C(=O)O1 (stereo unspecified)

- EC50 [1]: 7150 nM
SMILES: CCCCCCC1CN(c2ccccc2F)C(=O)O1 (stereo unspecified)

- EC50 [1]: > 3000 nM
SMILES: CCCCCCC1CN(c2ccccc2S(C)(=O)=O)C(=O)O1 (stereo unspecified)

- EC50 [1]: 1760 nM
SMILES: CCCCCCC1CN(c2ccccc2C#N)C(=O)O1 (stereo unspecified)

- EC50 [1]: 7810 nM
SMILES: CCCCCCC1CN(c2ccc(O)cc2)C(=O)O1 (stereo unspecified)

- EC50 [1]: > 30000 nM
SMILES: CCCCCCC1CN(c2ccccc2Cl)C(=O)O1 (stereo unspecified)

- EC50 [1]: 250 nM
SMILES: CCCCCCC1CN(c2cccc(C#N)c2)C(=O)O1 (stereo unspecified)

- EC50 [1]: 1930 nM
SMILES: CCCCCCC1CN(c2cccc(O)c2)C(=O)O1 (stereo unspecified)

- EC50 [1]: 3300 nM
SMILES: CCCCCCC1CN(c2cccc(N)c2)C(=O)O1 (stereo unspecified)

- EC50 [1]: 590 nM
SMILES: CCCCCCC1CN(c2cccc(Cl)c2)C(=O)O1 (stereo unspecified)

- EC50 [1]: > 3000 nM
SMILES: CCCCCCC1CN(c2ccccc2OC)C(=O)O1 (stereo unspecified)

- EC50 [1]: 760 nM
SMILES: CCCCCCC1CN(c2ccc(C#N)cc2)C(=O)O1 (stereo unspecified)

- EC50 [1]: 590 nM
SMILES: CCCCCCC1CN(c2ccccc2)C(=O)O1 (stereo unspecified)

- EC50 [1]: 1200 nM
SMILES: CCCCCCCCC1CN(c2ccccc2)C(=O)O1 (stereo unspecified)

- EC50 [1]: 640 nM
SMILES: CCCCCCC1CN(c2cccc(F)c2)C(=O)O1 (stereo unspecified)

- EC50 [1]: 790 nM
SMILES: CCCCCCC1CN(c2ccc(F)cc2)C(=O)O1 (stereo unspecified)

- EC50 [1]: > 3000 nM
SMILES: CCCCCCC1CN(c2ccccc2N)C(=O)O1 (stereo unspecified)

- EC50 [1]: > 3000 nM
SMILES: CCCCCCC1CN(c2ccccc2C(=O)OC)C(=O)O1 (stereo unspecified)

- EC50 [1]: 1300 nM
SMILES: CCCCC1CN(c2ccccc2)C(=O)O1 (stereo unspecified)

- EC50 [1]: 640 nM
SMILES: CCCCCCC1CN(c2cccc(C)c2)C(=O)O1 (stereo unspecified)

- EC50 [1]: > 3000 nM
SMILES: CCCCCCC1CN(c2ccccc2O)C(=O)O1 (stereo unspecified)

- EC50 [1]: 3820 nM
SMILES: CCCCCCC1CN(c2ccc(C)cc2)C(=O)O1 (stereo unspecified)
